Data published in the supplement of paper PMC11061612.

Legend:
[1] = test system: U-118-MG (Low Grade Glioma); assay: Bliss excess, mean over the matrix (fraction); higher = more synergy
Method in brief: (§1)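 Cell lines grown in DMEM/F12 or RPMI with 10% FBS were plated in 1536-well plates and held 24 hours at 37°C, 5% CO2 before 72 hours of exposure to two-drug dose matrices, with DMSO typically at 0.2%. CellTiter-Glo 2.0 luminescence gave viability, which was converted to inhibition. Vehicle wells were set to 0 and blank wells to 1. Combination Emax is the second-highest inhibition in the matrix, and Bliss excess is the observed combination effect minus the expected EA + EB − EA·EB, where EA and EB are the single-agent effects.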

[2] = test system: HCT-116 (Colorectal Carcinoma); assay: as above
Method in brief: as §1

[3] = test system: FU-OV-1 (Ovarian Carcinoma); assay: as above
Method in brief: as §1

[4] = test system: WSU-DLCL2 (B-Cell Non-Hodgkin's Lymphoma); assay: as above
Method in brief: as §1

[5] = test system: CAL-39 (Other Solid Carcinomas); assay: as above
Method in brief: as §1

Saos-2 (Osteosarcoma) = assay: as above
Method in brief: as §1

[6] = test system: SLVL (B-Cell Non-Hodgkin's Lymphoma); assay: as above
Method in brief: as §1

[7] = test system: SW48 (Colorectal Carcinoma); assay: as above
Method in brief: as §1

[8] = test system: D-283MED (Other Solid Carcinomas); assay: as above
Method in brief: as §1

[9] = test system: SK-UT-1 (Other Solid Carcinomas); assay: as above
Method in brief: as §1

[10] = test system: NCI-H1688 (Small Cell Lung Carcinoma); assay: as above
Method in brief: as §1

[11] = test system: P31-FUJ (Acute Myeloid Leukemia); assay: as above
Method in brief: as §1

[12] = test system: TC-YIK (Other Solid Carcinomas); assay: as above
Method in brief: as §1

[13] = test system: FU-OV-1 (Ovarian Carcinoma); assay: combination Emax (second highest fraction inhibited in the dose matrix, 72 h); higher = more inhibition; extreme values may be limits of the assay
Method in brief: as §1

[14] = test system: TC-YIK (Other Solid Carcinomas); assay: as above
Method in brief: as §1
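For Bliss excess, mean over the matrix in this document: after 72 h of two-drug dosing.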

Row | SMILES | Bliss excess [1] | Bliss excess [2] | Bliss excess [3] | Bliss excess [4] | Bliss excess [5] | Bliss excess (Saos-2 (Osteosarcoma)) | Bliss excess [6] | Bliss excess [7] | Bliss excess [8] | Bliss excess [9] | Bliss excess [10] | Bliss excess [11] | Bliss excess [12] | combination Emax [13] | combination Emax [14]
1 | NC1(C(=O)N[C@@H](CCO)c2ccc(Cl)cc2)CCN(c2ncnc3[nH]ccc23)CC1 [Capivasertib] + CC(=O)c1c(C)c2cnc(Nc3ccc(N4CCNCC4)cn3)nc2n(C2CCCC2)c1=O [Palbociclib] (first compound max 10 µM, 7x7, partner max 10 µM) | -0.0154 | 0.01 | -0.0388 | 0.0205 | 0.0167 | 0.0005 | -0.024 | -0.0217 | -0.0227 | -0.0009 | 0.017 | -0.0807 | -0.048 | 0.236 | 0.44
2 | NC1(C(=O)N[C@@H](CCO)c2ccc(Cl)cc2)CCN(c2ncnc3[nH]ccc23)CC1 [Capivasertib] + CC(C)n1c(=O)n(C)c2cnc3cc(F)c(-c4ccc(OCCCN5CCCCC5)nc4)cc3c21 [AZD1390] (first compound max 10 µM, 7x7, partner max 0.3 µM) | -0.0405 | -0.0263 | -0.0541 | 0.0106 | -0.0731 | -0.0063 | -0.0671 | -0.0345 | -0.0009 | -0.0017 | -0.044 | -0.169 | -0.0346 | 0.253 | 0.17
3 | NC1(C(=O)N[C@@H](CCO)c2ccc(Cl)cc2)CCN(c2ncnc3[nH]ccc23)CC1 [Capivasertib] + CCN(CCO)CCCOc1ccc2c(Nc3cc(CC(=O)Nc4cccc(F)c4)[nH]n3)ncnc2c1 [AZD2811] (first compound max 10 µM, 7x7, partner max 1 µM) | -0.0475 | 0.0513 | -0.0235 | 0.0415 | -0.051 | -0.0757 | -0.0608 | 0.0146 | 0.0666 | 0.0666 | -0.0412 | -0.0663 | -0.0415 | 0.268 | 0.95
4 | NC1(C(=O)N[C@@H](CCO)c2ccc(Cl)cc2)CCN(c2ncnc3[nH]ccc23)CC1 [Capivasertib] + COc1nnc2ccc(N3CCC(c4ccc(OCCN5CCN(C)C(=O)[C@H]5C)cc4)CC3)nn12 [AZD5153] (first compound max 10 µM, 7x7, partner max 1 µM) | 0.057 | 0.0331 | -0.0492 | -0.0546 | -0.0579 | -0.0028 | -0.102 | -0.0226 | -0.0185 | 0.0637 | 0.001 | 0.0066 | -0.0723 | 0.575 | 0.962
5 | NC1(C(=O)N[C@@H](CCO)c2ccc(Cl)cc2)CCN(c2ncnc3[nH]ccc23)CC1 [Capivasertib] + C[C@@H]1COCCN1C2=NC(=NC(=C2)C3(CC3)[S@](=N)(=O)C)C4=C5C=CNC5=NC=C4 [AZD6738] (first compound max 10 µM, 7x7, partner max 10 µM) | -0.0276 | -0.0432 | -0.0313 | -0.0088 | 0.0019 | -0.0717 | -0.0936 | -0.0387 | -0.0048 | -0.0983 | -0.0062 | -0.145 | 0.0091 | 0.35 | 0.901
6 | Cc1nc(Nc2ncc(C(=O)Nc3c(C)cccc3Cl)s2)cc(N2CCN(CCO)CC2)n1 [Dasatinib] + CC(=O)Nc1cccc(-n2c(=O)n(C3CC3)c(=O)c3c(Nc4ccc(I)cc4F)n(C)c(=O)c(C)c32)c1 [Trametinib] (first compound max 2 µM, 7x7, partner max 1 µM) | -0.0736 | 0.0991 | – | 0.101 | 0.0171 | 0.0164 | -0.147 | 0.225 | -0.0475 | -0.0255 | -0.0122 | 0.108 | 0.0746 | – | 0.638
7 | CS(=O)(=O)CCNCc1ccc(-c2ccc3ncnc(Nc4ccc(OCc5cccc(F)c5)c(Cl)c4)c3c2)o1 [Lapatinib] + Cn1cnc2c(F)c(Nc3ccc(Br)cc3Cl)c(C(=O)NOCCO)cc21 [Selumetinib] (first compound max 10 µM, 7x7, partner max 10 µM) | – | -0.0864 | -0.0698 | 0.0044 | -0.0923 | 0.0251 | 0.0683 | 0.146 | 0.0163 | 0.0151 | – | -0.0118 | 0.0665 | 0.55 | 0.531
8 | CS(=O)(=O)CCNCc1ccc(-c2ccc3ncnc(Nc4ccc(OCc5cccc(F)c5)c(Cl)c4)c3c2)o1 [Lapatinib] + NC1(c2ccc(-c3nc4ccn5c(=O)[nH]nc5c4cc3-c3ccccc3)cc2)CCC1 [MK-2206] (first compound max 10 µM, 7x7, partner max 10 µM) | – | -0.0347 | 0.0239 | 0.0058 | -0.0006 | -0.0026 | 0.0539 | 0.0412 | 0.0164 | 0.0057 | -0.0202 | -0.062 | -0.014 | 0.751 | 0.944
9 | Cc1nc(-c2cn3c(n2)-c2ccc(-c4cnn(C(C)(C)C(N)=O)c4)cc2OCC3)n(C(C)C)n1 [Taselisib] + O=C(Nc1ccc2[nH]nc(-c3ccncc3)c2c1)[C@@H]1CCN(CC(=O)N2CCN(c3ccc(-c4ncccn4)cc3)CC2)C1 [SCH772984] (first compound max 10 µM, 7x7, partner max 5 µM) | – | 0.138 | -0.0373 | 0.0062 | 0.0609 | 0.0665 | 0.0524 | 0.203 | 0.061 | 0.104 | – | 0.0477 | 0.0859 | 0.727 | 0.661
